pEC50, pIC50: −log10 of the molar value.
Columns and labels:
L-363 cells = test: Antiproliferative activity on L-363 cells (CellTiter-Glo); type: cell-based, human; conditions: 72 hr treatment, averaged values
Method: (§1) Determination of Antiproliferative Activity on LP-1, L-363 and JJN-3 Cells
(§2) All compounds tested were dissolved in DMSO and further dilutions were made in culture medium. Final DMSO concentration was 0.3% (v/v) in cell proliferation assays. Viability was assessed using CellTiter-Glo cell viability assay kit (Promega). The human LP-1, L-363 and JJN-3 cells (DSMZ) were cultured in RPMI 1640 medium supplemented with 2 mM L-glutamine, and 10% fetal calf serum (PAA). Cells were routinely kept as suspension cells at 37° C. in a humidified 5% CO2 atmosphere. Cells were passaged at a seeding density of 0.2×10^6/ml twice a week. Cells were seeded in black tissue culture treated 96-well plates (Perkin Elmer). Densities used for plating ranged from 2,000 to 6,000 cells per well in a total volume of 75 μl medium. After twenty four hours, drugs and/or solvents were added (25 μl) to a final volume of 100 μl. Following 72 hr of treatment plates were removed from the incubator and allowed to equilibrate to room temperature for approx 10 min. 100 μl CellTiter-Glo reagent was added to each well that was then covered (Perkin Elmer Topseal) and shaken on plate shaker for 10 min. Luminescence was measured on a HTS Topcount (Perkin Elmer). Within an experiment, the results for each treatment were the mean of 2 replicate wells. For initial screening purposes, compounds were tested using a 9 point dilution curve (serial 1:3 dilutions). For each experiment, controls (containing no drug) and a blank incubation (containing cells read at the time of compound addition) were run in parallel. The blank value was subtracted from all control and sample values. For each sample, the mean value for cell growth (in relative light units) was expressed as a percentage of the mean value for cell growth of the control.

[1] = biological target: Recombinant Human NF-kappaB-Inducing Kinase (NIK/MAP3K14) (Homo sapiens, UniProt Q99558); test: Inhibition of auto-phosphorylation of recombinant human NIK/MAP3K14 (AlphaScreen); type: biochemical; conditions: 25 microM ATP, 0.2 nM GST-tagged NIK/MAP3K14, 1 h at 25° C.; averaged over all measurements on all batches; read-out: Alpha-Screen IC50
Method: Inhibition of Auto-Phosphorylation of Recombinant Human NF-kappaB-Inducing Kinase (NIK/MAP3K14) Activity (AlphaScreen®)
NIK/MAP3K14 auto-phosphorylation activity was measured using the AlphaScreen® (αscreen) format (Perkin Elmer). All compounds tested were dissolved in dimethyl sulfoxide (DMSO) and further dilutions were made in assay buffer. Final DMSO concentration was 1% (v/v) in assays. Assay buffer was 50 mM Tris pH 7.5 containing 1 mM EGTA (ethylene glycol tetraacetic acid), 1 mM DTT (dithiothreitol), 0.1 mM Na3VO4, 5 mM MgCl2, 0.01% Tween® 20. Assays were carried out in 384 well Alphaplates (Perkin Elmer). Incubations consisted of compound, 25 microM Adenosine-5′-triphosphate (ATP), and 0.2 nM NIK/MAP3K14. Incubations were initiated by addition of GST-tagged NIK/MAP3K14 enzyme, carried out for 1 h at 25° C. and terminated by addition of stop buffer containing anti-phospho-IKK Ser176/180 antibody. Protein A Acceptor and Glutathione-Donor beads were added before reading using an EnVision® Multilabel Plate Reader (Perkin Elmer). Signal obtained in the wells containing blank samples was subtracted from all other wells and IC50's were determined by fitting a sigmoidal curve to % inhibition of control versus Log10 compound concentration.

JJN-3 cells = test: Antiproliferative activity on JJN-3 cells (CellTiter-Glo); type: cell-based, human; conditions: 72 hr treatment, averaged values
Method: as §1, §2

LP-1 cells = test: Antiproliferative activity on LP-1 cells (CellTiter-Glo); type: cell-based, human; conditions: 72 hr treatment, averaged values
Method: as §1, §2

Sequence of Recombinant Human NF-kappaB-Inducing Kinase (NIK/MAP3K14) (Q99558 whole entry): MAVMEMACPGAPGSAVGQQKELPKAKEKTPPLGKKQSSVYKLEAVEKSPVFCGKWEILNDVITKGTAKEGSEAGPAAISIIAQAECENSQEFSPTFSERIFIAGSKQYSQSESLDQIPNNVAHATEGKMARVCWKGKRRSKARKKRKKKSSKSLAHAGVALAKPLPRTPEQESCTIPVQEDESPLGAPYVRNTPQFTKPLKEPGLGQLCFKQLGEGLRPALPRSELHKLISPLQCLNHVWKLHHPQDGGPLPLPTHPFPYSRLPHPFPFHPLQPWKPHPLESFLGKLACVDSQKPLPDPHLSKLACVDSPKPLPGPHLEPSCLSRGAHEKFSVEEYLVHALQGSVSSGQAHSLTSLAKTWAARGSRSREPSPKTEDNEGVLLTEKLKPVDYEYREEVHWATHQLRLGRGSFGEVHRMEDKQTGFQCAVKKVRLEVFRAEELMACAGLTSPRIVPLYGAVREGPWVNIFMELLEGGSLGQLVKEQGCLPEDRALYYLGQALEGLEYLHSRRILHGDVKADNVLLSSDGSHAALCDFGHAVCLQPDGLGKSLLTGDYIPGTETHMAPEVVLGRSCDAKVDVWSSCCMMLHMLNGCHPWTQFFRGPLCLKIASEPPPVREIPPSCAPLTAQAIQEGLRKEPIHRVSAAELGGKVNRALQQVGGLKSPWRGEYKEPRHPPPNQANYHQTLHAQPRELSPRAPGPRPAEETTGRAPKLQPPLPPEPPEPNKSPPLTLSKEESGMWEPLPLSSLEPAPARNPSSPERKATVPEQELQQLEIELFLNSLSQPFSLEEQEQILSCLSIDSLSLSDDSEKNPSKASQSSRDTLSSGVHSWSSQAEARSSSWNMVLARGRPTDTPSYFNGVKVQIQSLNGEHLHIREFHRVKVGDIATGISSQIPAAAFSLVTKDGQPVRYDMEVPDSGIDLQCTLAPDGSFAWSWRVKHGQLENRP

Row | Structure (SMILES) | pIC50 [1] | pEC50 (L-363 cells; Homo sapiens, L-363, 72 h) | pEC50 (JJN-3 cells; Homo sapiens, JJN-3, 72 h) | pEC50 (LP-1 cells; Homo sapiens, LP-1, 72 h) | pEC50 (L-363 cells) | pEC50 (JJN-3 cells) | pEC50 (LP-1 cells)
1 | CCCN1CCC(n2cc(-c3nc(N)ncc3F)c3cc(C#CC(C)(O)C4CC4)ncc32)C1 (stereo not drawn) [Compound 6] | 7.54 | 7.51 | 7.21 | 7.16 |  |  | 
2 | Nc1ncc(F)c(-c2c[nH]c3cnc(C#CC4(O)CCCC4)cc23)n1 [Compound 20] | 8.70 | 6.90 | 6.82 | 5.95 |  |  | 
3 | Cc1cc(C(C)(O)C#Cc2cc3c(-c4nc(N)ncc4F)c[nH]c3cn2)no1 (single isomer, unassigned) [Compound 33] | 8.52 |  |  |  | 6.33 | 6.23 | 5.39
4 | CCCCN1CCC(n2cc(-c3nc(N)ncc3F)c3cc(C#CC(C)(O)C4CC4)ncc32)C1 (stereo not drawn) [Compound 11] | 7.68 | 7.40 | 7.21 | 7.28 |  |  | 
5 | COCCN1CCC(n2cc(-c3nc(N)ncc3F)c3cc(C#CC(C)(O)C4CC4)ncc32)C1 (stereo not drawn) [Compound 7] | 7.59 | 6.84 | 6.65 | 6.49 |  |  | 
6 | Cc1cc(C(C)(O)C#Cc2cc3c(-c4nc(N)ncc4F)cn(C4CN(C5CC5)C4)c3cn2)no1 (stereo not drawn) [Compound 16] | 7.47 | 6.09 | 6.02 | 5.75 |  |  | 
7 | CC(O)(C#Cc1cc2c(-c3nc(N)ncc3F)cn(C3CN(C4CC4)C3)c2cn1)c1nccs1 (single isomer, unassigned) [Compound 29] | 6.13 |  |  |  | 5.51 | 5.71 | 5.45
8 | CC(O)(C#Cc1cc2c(-c3nc(N)ncc3F)cn(C3CN(CCC(F)(F)F)C3)c2cn1)C1CC1 (stereo not drawn) [Compound 5] | 7.13 | 6.76 | 6.64 | 6.42 |  |  | 
9 | CC(C)n1cc(-c2nc(N)ncc2OCCN2CCOCC2)c2cc(C#CC(C)(O)C3CC3)ncc21 (stereo not drawn) [Compound 4] | 6.82 | 6.82 | 6.68 | 5.93 |  |  | 
10 | Cc1cc(C(C)(O)C#Cc2cc3c(-c4nc(N)ncc4F)c[nH]c3cn2)no1 (single isomer, unassigned) [Compound 32] | 6.42 |  |  |  | 5.26 | 5.36 | 4.71
11 | CC(O)(C#Cc1cc2c(-c3nc(N)ncc3F)c[nH]c2c(C2CC2)n1)C1CC1 (single isomer, unassigned) [Compound 13] | 7.54 | 8.40 | 8.15 | 7.82 |  |  | 
12 | [2H]C([2H])([2H])C(O)(C#Cc1cc2c(-c3nc(N)ncc3F)cn(C3CCCN(CCC)C3)c2cn1)C([2H])([2H])[2H] (single isomer, unassigned) [Compound 25] | 7.09 |  |  |  | 7.18 | 6.99 | 6.79
13 | CC(C)N1CCC(n2cc(-c3nc(N)ncc3F)c3cc(C#CC(C)(O)C4CC4)ncc32)C1 (stereo not drawn) [Compound 3] | 6.81 | 7.25 | 6.88 | 6.83 |  |  | 
14 | Cc1cc(C(C)(O)C#Cc2cc3c(-c4nc(N)ncc4F)c[nH]c3c(C3CC3)n2)no1 (stereo not drawn) [Compound 23] | 7.17 | 6.43 | 6.35 | 5.89 |  |  | 
15 | CC(O)(C#Cc1cc2c(-c3nc(N)ncc3F)c[nH]c2cn1)c1nccs1 (single isomer, unassigned) [Compound 30] | 7.70 |  |  |  | 5.32 | 5.68 | 4.94
16 | CC(O)(C#Cc1cc2c(-c3nc(N)ncc3F)cn(C3CN(C4CC4)C3)c2cn1)c1ncccn1 (stereo not drawn) [Compound 17] | 6.72 | 5.08 | 5.17 | 4.54 |  |  | 
17 | Nc1ncc(F)c(-c2c[nH]c3c(C4CC4)nc(C#CC4(O)CCCC4)cc23)n1 [Compound 22] | 7.43 | 7.62 | 7.43 | 6.96 |  |  | 
18 | CC(O)(C#Cc1cc2c(-c3nc(N)ncc3F)cn(C3CN(C4CC4)C3)c2cn1)c1nccs1 (single isomer, unassigned) [Compound 28] | 7.80 |  |  | 5.37 | 6.40 | 6.39 | 

Now from value to molecule, other results behind:

Row | pIC50 [1] | Structure (SMILES) | pEC50 (L-363 cells; Homo sapiens, L-363, 72 h) | pEC50 (JJN-3 cells; Homo sapiens, JJN-3, 72 h) | pEC50 (LP-1 cells; Homo sapiens, LP-1, 72 h) | pEC50 (L-363 cells) | pEC50 (JJN-3 cells) | pEC50 (LP-1 cells)
19 | 7.52 | COCCCN1CCC(n2cc(-c3nc(N)ncc3F)c3cc(C#CC(C)(O)C4CC4)ncc32)C1 (stereo not drawn) [Compound 8] | 7.10 | 6.92 | 6.80 |  |  | 
20 | 8.52 | CC(O)(C#Cc1cc2c(-c3nc(N)ncc3F)c[nH]c2cn1)c1nccs1 (stereo not drawn) [Compound 19] | 5.90 | 5.99 | 5.12 |  |  | 
21 | 7.59 | CCCCN1CCC(n2cc(-c3nc(N)ncc3F)c3cc(C#CC(C)(O)C4CC4)ncc32)C1 (single isomer, unassigned) [Compound 27] |  |  |  | 7.28 | 7.04 | 7.00
22 | 6.84 | Cc1nc(C(C)(O)C#Cc2cc3c(-c4nc(N)ncc4F)cn(C4CN(C5CC5)C4)c3cn2)no1 (stereo not drawn) [Compound 15] | 5.57 | 5.49 | 4.84 |  |  | 
23 | 8.70 | CC(O)(C#Cc1cc2c(-c3nc(N)ncc3F)c[nH]c2cn1)c1nccs1 (single isomer, unassigned) [Compound 31] |  |  |  | 5.92 | 6.20 | 5.24
24 | 7.24 | CCN1CCC(n2cc(-c3nc(N)ncc3F)c3cc(C#CC(C)(O)C4CC4)nc(C)c32)C1 (stereo not drawn) [Compound 10] | 8.00 | 7.66 | 7.70 |  |  | 
25 | 8.00 | Cc1cc(C(C)(O)C#Cc2cc3c(-c4nc(N)ncc4F)c[nH]c3cn2)no1 (stereo not drawn) [Compound 18] | 5.96 | 5.92 | 5.30 |  |  | 
26 | 7.74 | CCCCN1CCC(n2cc(-c3nc(N)ncc3F)c3cc(C#CC(C)(O)C4CC4)ncc32)C1 (single isomer, unassigned) [Compound 26] | 7.20 | 7.00 | 6.94 |  |  | 
27 | 7.02 | Nc1ncc(F)c(-c2cn(C3CN(C4CC4)C3)c3cnc(C#CC4(O)CCCC4)cc23)n1 [Compound 21] | 6.39 | 6.33 | 6.00 |  |  | 
28 | 7.02 | CC(O)(C#Cc1cc2c(-c3nc(N)ncc3F)c[nH]c2c(C2CC2)n1)C1CC1 (stereo not drawn) [Compound 1] | 8.40 | 8.10 | 7.72 |  |  | 
29 | 7.80 | CC(O)(C#Cc1cc2c(-c3nc(N)ncc3F)cn(C3CN(C4CC4)C3)c2cn1)c1nccs1 (stereo not drawn) [Compound 14] | 5.91 | 6.20 | 5.40 |  |  | 
30 | 7.05 | [2H]C([2H])([2H])C(O)(C#Cc1cc2c(-c3nc(N)ncc3F)cn(C3CCCN(CCC)C3)c2cn1)C([2H])([2H])[2H] (single isomer, unassigned) [Compound 24] |  |  |  | 6.93 | 6.87 | 6.66
31 | 7.16 | CC(O)C#Cc1cc2c(-c3nc(N)ncc3F)cn(C3CN(C4CC4)C3)c2cn1 (stereo not drawn) [Compound 9] | 7.43 | 7.26 | 6.88 |  |  | 
32 | 8.15 | Cc1nc(C#CC(C)(O)C2CC2)cc2c(-c3nc(N)ncc3F)c[nH]c12 (stereo not drawn) [Compound 2] | 8.30 | 8.15 | 7.41 |  |  | 
33 | 7.25 | [2H]C([2H])([2H])C(O)(C#Cc1cc2c(-c3nc(N)ncc3F)cn(C3CCCN(CCC)C3)c2cn1)C([2H])([2H])[2H] (stereo not drawn) [Compound 12] |  |  |  | 7.38 | 7.42 | 7.12
